Among the data in patent publication US20260109707A1, “HETEROBIFUNCTIONAL COMPOUNDS AND METHODS OF TREATING DISEASE” (Halda Therapeutics OpCo. Inc., priority 2022, published 2026) are Kd and IC50 values, retold here.

The first assay deals with T1, BRD4-BD1 (Homo sapiens, UniProt O60885).
T1 construct: made in house; host or cells: T7 phage grown in an E. coli host derived from the BL21 strain
Put plainly: bromoKdELECT assay for binding affinity to BRD4-BD1. The following applies: binding to BRD4-BD1, Table 4. As for the experimental part:
Compounds were tested using a bromoKdELECT assay. T7 phage strains displaying bromodomains were grown in parallel in 24-well blocks in an E. coli host derived from the BL21 strain. E. coli were grown to log-phase and infected with T7 phage from a frozen stock (multiplicity of infection=0.4) and incubated with shaking at 32° C. until lysis (90-150 minutes). The lysates were centrifuged (5,000×g) and filtered (0.2 μm) to remove cell debris. Streptavidin-coated magnetic beads were treated with biotinylated small molecule or acetylated peptide ligands for 30 minutes at room temperature to generate affinity resins for bromodomain assays. The liganded beads were blocked with excess biotin and washed with blocking buffer (SeaBlock (Pierce), 1% BSA, 0.05% Tween 20, 1 mM DTT) to remove unbound ligand and to reduce nonspecific phage binding. Binding reactions were assembled by combining bromodomains, liganded affinity beads, and test compounds in 1× binding buffer (17% SeaBlock, 0.33×PBS, 0.04% Tween 20, 0.02% BSA, 0.004% Sodium azide, 7.4 mM DTT). Test compounds were prepared as 1000× stocks in 100% DMSO. Kds were determined using an 11-point 3-fold compound dilution series with one DMSO control point. All compounds for Kd measurements are distributed by acoustic transfer (non-contact dispensing) in 100% DMSO. The compounds were then diluted directly into the assays such that the final concentration of DMSO was 0.09%. All reactions performed in polypropylene 384-well plates. Each was a final volume of 0.02 ml. The assay plates were incubated at room temperature with shaking for 1 hour and the affinity beads were washed with wash buffer (1×PBS, 0.05% Tween 20). The beads were then resuspended in elution buffer (1×PBS, 0.05% Tween […] non-biotinylated affinity ligand) and incubated at room temperature with shaking for 30 minutes. The bromodomain concentration in the eluates was measured by qPCR.
One may read the Kd as the constant that tells how readily two partners part at equilibrium. Molecule `Cc1sc2c(c1C)C(c1ccc(Cl)cc1)=N[C@@H](CC(=O)NCCOC1CCN(c3ccc(C(=O)N[C@H]4CC[C@H](Oc5ccc(C#N)c(Cl)c5)CC4)nn3)CC1)c1nnc(C)n1-2` [I-1, N-[4-(3-chloro-4-cyano-phenoxy)cyclohexyl]-6-[4-[2-[[2-[(9S)-7-(4-chlorophenyl)-4,5,13-trimethyl-3-thia-1,8,11,12-tetrazatricyclo[8.3.0.0^2,6]trideca-2(6),4,7,10,12-pentaen-9-yl]acetyl]amino]ethoxy]-1-piperidyl]pyridazine-3-carboxamide] yielded a Kd of 50 to 500 nM.

As for `CCNC(=O)C[C@@H]1N=C(c2ccc(CCCOC3CCN(c4ccc(C(=O)N[C@H]5CC[C@H](Oc6ccc(C#N)c(Cl)c6)CC5)nn4)CC3)cc2)c2c(sc(C)c2C)-n2c(C)nnc21` [I-17], the Kd is 50 to 500 nM.

As to `CCNC(=O)C[C@@H]1N=C(c2ccc(CC3CCN(c4ccc(C(=O)N[C@H]5CC[C@H](Oc6ccc(C#N)c(Cl)c6)CC5)nn4)CC3)cc2)c2c(sc(C)c2C)-n2c(C)nnc21` [I-20], the Kd lay in the range of 50 to 500 nM.

The molecule `CCNC(=O)C[C@@H]1N=C(c2ccc(N3CC4(C3)CN(c3ccc(C(=O)N[C@H]5CC[C@H](Oc6ccc(C#N)c(Cl)c6)CC5)nn3)C4)cc2)c2c(sc(C)c2C)-n2c(C)nnc21` [I-24] gave a Kd of 50 to 500 nM.

Consider `CCNC(=O)C[C@@H]1N=C(c2ccc(N3CCC(OC4CCN(c5ccc(C(=O)N[C@H]6CC[C@H](Oc7ccc(C#N)c(Cl)c7)CC6)nn5)CC4)CC3)cc2)c2c(sc(C)c2C)-n2c(C)nnc21` [I-44], for which the Kd was in the range of 50 to 500 nM.

A further assay has as its target T2, progesterone receptor ligand binding domain (LBD) (Homo sapiens, UniProt P06401).
T2 construct: GST-tagged PR LBD, Fluormone tracer, and compound were mixed and incubated for 2 hours; purchased Life Technologies A15905 or a15906
T2 sequence (P06401 679-913 limits assumed): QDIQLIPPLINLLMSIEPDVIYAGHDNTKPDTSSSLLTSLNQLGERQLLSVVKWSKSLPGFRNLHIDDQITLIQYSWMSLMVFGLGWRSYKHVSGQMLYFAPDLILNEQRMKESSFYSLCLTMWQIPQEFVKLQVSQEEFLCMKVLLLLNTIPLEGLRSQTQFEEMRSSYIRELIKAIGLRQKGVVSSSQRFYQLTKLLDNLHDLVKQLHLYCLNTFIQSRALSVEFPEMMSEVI
The experiment in a line: FP assay for binding affinity to progesterone receptor (PolarScreen Progesterone Receptor Competitor Assay Kit). As to conditions: fluorescence polarization, GST-tagged PR LBD, Table 13. As for the experimental part: Compounds were tested using the PolarScreen™ Progesterone Receptor Competitor Assay Kit (Life Technologies Cat #A15905 or a15906), as per the manufacturer's instructions. Briefly, GST-tagged PR LBD, Fluormone tracer, and compound were mixed and incubated for 2 hours at room temperature in the dark. Following incubation, the plates were spun at 3000×g for 30 seconds, then sealed with an optical adhesive cover, and fluorescence polarization was measured using appropriate excitation and emission filters with an EnVision Plate Reader (Perkin Elmer). Compound concentration vs. mP value were plotted in Prism (GraphPad). A four-parameter non-linear regression curve fit was applied to dose-response data to determine the half-maximal inhibitory concentration (IC50) for each test compound.
In general terms: In fluorescence polarisation assays a small probe gives low polarisation when free and higher when bound to something large.
For orientation: IC50 means the concentration that inhibits the measured activity by half. Molecule `Cc1sc2c(c1C)C(c1ccc(Cl)cc1)=N[C@@H](CC(=O)NCCOCCOCCOC1CCN(c3ccc(C(=O)N[C@H]4CC[C@H](Oc5ccc(C#N)c(Cl)c5)CC4)nn3)CC1)c1nnc(C)n1-2` [I-2, N-[4-(3-chloro-4-cyano-phenoxy)cyclohexyl]-6-[4-[2-[2-[2-[[2-[(9S)-7-(4-chlorophenyl)-4,5,13-trimethyl-3-thia-1,8,11,12-tetrazatricyclo[8.3.0.0^2,6]trideca-2(6),4,7,10,12-pentaen-9-yl]acetyl]amino]ethoxy]ethoxy]ethoxy]-1-piperidyl]pyridazine-3-carboxamide] returned an IC50 of 50 to 500 nM.
